Experimental findings from patent US10947242B2, “[1,2,4]triazolo[1,5and#8208;A]pyrimidine compounds as PDE2 inhibitors” (Janssen Pharmaceutica NV, priority 2016, dated 2021) are described below.

Where two headings read alike, the source gives them in different places.

Assay type in all cases: biochemical
Experiment [1] has as its target T1, Human recombinant PDE10A (hPDE10A) (Homo sapiens, UniProt Q9Y233).
T1 construct: His tag (inferred from metal chelate purification); made in house; host or cells: Sf9 insect cells (baculovirus)
The experiment is described as follows: In vitro assay PDE10A, human clone (SPA, 3H-cAMP hydrolysis). The gist of the method:
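Human recombinant PDE10A was expressed in Sf9 cells via baculovirus and incubated with compound in 50 mM Tris pH 7.8, 8.3 mM MgCl2, 1.7 mM EGTA. Substrate was 60 nM cAMP plus 0.008 μCi 3H-cAMP for 60 min at room temperature, read by SPA scintillation counting. Controls used 1% DMSO, and blanks omitted enzyme.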

Experiment [2] addresses T2, Human recombinant PDE3A (hPDE3A) (Homo sapiens, UniProt Q14432).
T2 construct: purchased Scottish Biomedical; host or cells: Sf9 insect cells
The experiment is described as follows: In vitro assay PDE3A (SPA, 3H-cAMP hydrolysis).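 On all read-outs here: the method names PDE3A and the table heading PDE3B.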 To be noted: for IC50: hPDE3B pIC50, read-out: pIC50 (converted); for Emax: read-out: hPDE3B Emax, read-out: Emax. Put shortly: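 Human PDE3A, cloned from brain, as partially purified Sf9 lysate. Substrate 0.4 μM cAMP plus [3H]-cAMP (2.4 μCi/ml final) in 50 mM Tris pH 7.8, 8.3 mM MgCl2, 1.7 mM EGTA, 60 min at room temperature, 1% DMSO final. Hydrolysis read by SPA scintillation counting against no-enzyme blanks and DMSO controls.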

Experiment [3] has as its target T3, Human recombinant PDE2A (hPDE2A) (Homo sapiens, UniProt O00408).
T3 construct: His tag (inferred from metal chelate purification); made in house; host or cells: Sf9 insect cells (baculovirus)
The experiment in a line: In vitro assay PDE2A (SPA, 3H-cGMP hydrolysis). To be noted: for Emax: read-out: hPDE2A Emax; for IC50: read-out: hPDE2A pIC50 (converted).

Setting [4] is: human clone by default (no (r) mark), read-out: hPDE10A2 or rPDE10A2 Emax.
Setting [5] is: human clone by default (no (r) mark), read-out: hPDE10A2 or rPDE10A2 pIC50 (converted).
[6] abbreviates: human clone (h), default, read-out: hPDE10A2 Emax.
The mark [7] stands for this setting: human clone (h), default, read-out: hPDE10A2 pIC50 (converted).
Where [8] appears, read: human recombinant PDE2A, 10 μM cGMP substrate.

T1 sequence (Q9Y233 267-1055): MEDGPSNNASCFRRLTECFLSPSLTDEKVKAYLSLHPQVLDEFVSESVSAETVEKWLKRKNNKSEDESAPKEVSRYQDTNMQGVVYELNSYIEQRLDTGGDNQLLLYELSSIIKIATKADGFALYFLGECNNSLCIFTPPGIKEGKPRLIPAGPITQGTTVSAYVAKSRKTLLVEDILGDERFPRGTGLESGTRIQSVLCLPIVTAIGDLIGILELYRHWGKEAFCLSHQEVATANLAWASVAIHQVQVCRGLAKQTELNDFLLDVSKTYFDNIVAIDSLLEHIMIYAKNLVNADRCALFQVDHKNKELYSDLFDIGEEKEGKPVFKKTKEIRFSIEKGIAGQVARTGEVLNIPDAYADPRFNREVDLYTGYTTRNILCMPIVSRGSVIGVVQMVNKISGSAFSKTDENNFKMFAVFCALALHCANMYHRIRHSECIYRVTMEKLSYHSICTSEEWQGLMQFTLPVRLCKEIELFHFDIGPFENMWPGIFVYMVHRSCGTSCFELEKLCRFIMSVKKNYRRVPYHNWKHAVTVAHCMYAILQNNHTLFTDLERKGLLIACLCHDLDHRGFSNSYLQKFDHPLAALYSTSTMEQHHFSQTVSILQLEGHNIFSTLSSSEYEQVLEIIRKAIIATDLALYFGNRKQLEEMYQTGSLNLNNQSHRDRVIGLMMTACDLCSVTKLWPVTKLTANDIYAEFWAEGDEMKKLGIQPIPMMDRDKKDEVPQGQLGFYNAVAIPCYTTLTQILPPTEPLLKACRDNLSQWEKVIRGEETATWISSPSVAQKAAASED
T2 sequence (Q14432 whole entry): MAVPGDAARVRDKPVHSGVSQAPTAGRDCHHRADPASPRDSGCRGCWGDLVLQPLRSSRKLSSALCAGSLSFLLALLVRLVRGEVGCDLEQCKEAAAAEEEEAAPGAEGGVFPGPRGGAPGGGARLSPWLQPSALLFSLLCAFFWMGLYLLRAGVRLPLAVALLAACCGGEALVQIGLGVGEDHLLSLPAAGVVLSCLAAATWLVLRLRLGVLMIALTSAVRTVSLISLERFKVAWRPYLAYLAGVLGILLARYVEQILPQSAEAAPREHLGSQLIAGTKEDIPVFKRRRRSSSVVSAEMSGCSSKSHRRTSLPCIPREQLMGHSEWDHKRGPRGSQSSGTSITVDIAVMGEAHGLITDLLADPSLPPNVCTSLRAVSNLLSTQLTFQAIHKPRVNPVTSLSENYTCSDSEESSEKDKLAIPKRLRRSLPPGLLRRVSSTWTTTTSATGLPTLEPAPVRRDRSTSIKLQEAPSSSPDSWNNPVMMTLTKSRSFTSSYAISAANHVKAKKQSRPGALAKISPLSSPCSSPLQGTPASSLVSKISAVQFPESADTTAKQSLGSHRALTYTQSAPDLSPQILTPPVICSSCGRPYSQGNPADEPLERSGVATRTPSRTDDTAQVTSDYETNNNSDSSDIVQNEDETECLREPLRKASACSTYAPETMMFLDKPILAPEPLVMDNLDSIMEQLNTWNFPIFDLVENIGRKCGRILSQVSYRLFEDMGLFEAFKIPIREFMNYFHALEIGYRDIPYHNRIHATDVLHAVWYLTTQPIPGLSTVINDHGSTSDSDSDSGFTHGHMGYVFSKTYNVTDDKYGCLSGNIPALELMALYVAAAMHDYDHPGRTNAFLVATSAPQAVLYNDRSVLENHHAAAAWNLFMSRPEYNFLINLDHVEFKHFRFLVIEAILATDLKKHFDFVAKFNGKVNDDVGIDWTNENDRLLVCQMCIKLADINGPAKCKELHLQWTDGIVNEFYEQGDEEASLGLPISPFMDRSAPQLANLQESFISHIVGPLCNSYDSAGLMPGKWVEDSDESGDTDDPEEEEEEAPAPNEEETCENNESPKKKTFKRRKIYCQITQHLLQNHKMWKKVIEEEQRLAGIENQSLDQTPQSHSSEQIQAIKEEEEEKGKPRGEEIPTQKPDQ
T3 sequence (O00408 whole entry): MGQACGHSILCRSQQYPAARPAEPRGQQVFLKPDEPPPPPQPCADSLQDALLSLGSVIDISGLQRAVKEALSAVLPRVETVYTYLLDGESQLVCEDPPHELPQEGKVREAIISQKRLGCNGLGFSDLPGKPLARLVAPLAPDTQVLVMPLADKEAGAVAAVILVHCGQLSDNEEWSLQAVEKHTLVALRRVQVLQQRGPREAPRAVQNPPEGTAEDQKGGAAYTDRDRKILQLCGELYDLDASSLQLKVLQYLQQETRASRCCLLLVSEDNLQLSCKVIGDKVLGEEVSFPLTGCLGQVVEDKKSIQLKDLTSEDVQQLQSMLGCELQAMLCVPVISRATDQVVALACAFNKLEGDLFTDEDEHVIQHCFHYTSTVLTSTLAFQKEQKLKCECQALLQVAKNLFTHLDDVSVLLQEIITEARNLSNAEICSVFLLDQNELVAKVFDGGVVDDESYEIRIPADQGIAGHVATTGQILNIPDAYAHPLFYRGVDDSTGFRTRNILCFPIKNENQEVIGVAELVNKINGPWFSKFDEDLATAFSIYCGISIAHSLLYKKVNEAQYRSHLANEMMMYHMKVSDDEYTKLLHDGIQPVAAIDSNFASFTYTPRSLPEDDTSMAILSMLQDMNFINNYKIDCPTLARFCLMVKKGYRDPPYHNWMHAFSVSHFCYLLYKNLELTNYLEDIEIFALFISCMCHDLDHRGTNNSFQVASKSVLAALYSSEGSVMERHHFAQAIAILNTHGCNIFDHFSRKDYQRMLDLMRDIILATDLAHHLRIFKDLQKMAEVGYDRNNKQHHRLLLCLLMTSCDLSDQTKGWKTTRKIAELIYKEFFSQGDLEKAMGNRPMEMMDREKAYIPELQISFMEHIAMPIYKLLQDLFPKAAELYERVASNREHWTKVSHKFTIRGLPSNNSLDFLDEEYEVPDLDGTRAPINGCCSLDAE

With `CN1CCOc2cc(C(=O)N3[C@H]4CC[C@H](c5cc(C(F)F)nc6ncnn56)[C@@H]3CC4)ccc21` [Compound 378], the maximum response (Emax) in experiment [1] (setting [4]) was determined as 97%; in experiment [2], 96%; in experiment [3], 99%. In addition, the IC50 in experiment [1] (setting [5]) is 407 nM; in experiment [2], 0.759 µM; in experiment [3] it was 1.7 nM.
For the compound `Cc1nc2cccc(C(=O)N3[C@H]4CC[C@H](c5cc(C(F)F)nc6ncnn56)[C@@H]3CC4)c2o1` [Compound 305], the Emax in experiment [1] (setting [4]) was found to be 57%; in experiment [2] it was 7%; in experiment [3] it was 100%. Further, the IC50 in experiment [1] (setting [5]) was 7080 nM; in experiment [2], above 10 µM; in experiment [3], 87.1 nM.
Regarding `Cc1cnc(C(=O)N2CC[C@@H](C)[C@H](c3cc(C(F)F)nc4ncnn34)C2)cn1` [Compound 232], the Emax in experiment [1] (setting [6]) is 48%; in experiment [1] (setting [4]), 48%; in experiment [2], 31%; in experiment [3] (human recombinant PDE2A), 99%; in experiment [3], 99%. Moreover, the IC50 is above 10000 nM in experiment [1] (setting [7]); above 10000 nM in experiment [1] (setting [5]); above 10 µM in experiment [2]; 214 nM in experiment [3] (setting [8]); 214 nM in experiment [3].
Take `Cc1cc(C(=O)N2CC[C@@H](C)[C@@](F)(c3cc(C(F)F)nc4ncnn34)C2)cc(C)n1` [Compound 81]: the Emax was found to be 1% in experiment [1] (setting [6]), 17% in experiment [2], 59% in experiment [3] (human recombinant PDE2A) and 59% in experiment [3]. The IC50 in experiment [1] (setting [7]) is above 10000 nM; in experiment [2] it was above 10 µM; in experiment [3] (setting [8]) it was 7080 nM; in experiment [3] it was 7080 nM.
Consider `C[C@@H]1CCN(C(=O)c2cc(C(C)(C)C)on2)C[C@H]1c1cc(C(F)F)nc2ncnn12` [Compound 258], for which the Emax in experiment [1] (setting [6]) was 90%; in experiment [1] (setting [4]) it was 90%; in experiment [2], 89%; in experiment [3], 99%. The IC50 is 1260 nM in experiment [1] (setting [7]), 1260 nM in experiment [1] (setting [5]), 1.55 µM in experiment [2] and 151 nM in experiment [3].
For the compound `COc1cc(C(=O)N2CC[C@@H](C)[C@H](c3cc(C(F)F)nc4ncnn34)C2)cc(C2CC2)n1` [Compound 113], the maximal response (Emax) was 99% in experiment [1] (setting [6]), 88% in experiment [2], 99% in experiment [3] (human recombinant PDE2A) and 99% in experiment [3]. For the same compound, the IC50 was 38 nM in experiment [1] (setting [7]), 1.12 µM in experiment [2], 1 nM in experiment [3] (setting [8]) and 1 nM in experiment [3].
Consider `Cc1ccc(C(=O)N2CC[C@@H](C)[C@H](c3cc(C(F)F)nc4ncnn34)C2)c(C)n1` [Compound 143], for which the maximal response (Emax) in experiment [1] (setting [6]) turned out to be 77%; in experiment [2], 58%; in experiment [3] (human recombinant PDE2A), 97%; in experiment [3], 97%. The IC50 in experiment [1] (setting [7]) was 2400 nM; in experiment [2] it was 7.94 µM; in experiment [3] (setting [8]), 33.1 nM; in experiment [3], 33.1 nM.
With `C[C@@H]1CCN(C(=O)c2ccc(C(C)(C)C)o2)C[C@H]1c1cc(C(F)F)nc2ncnn12` [Compound 136], the Emax in experiment [1] (setting [6]) came out at 97%; in experiment [2], 51%; in experiment [3] (human recombinant PDE2A), 101%; in experiment [3], 101%. Further, the IC50 was 288 nM in experiment [1] (setting [7]), above 10 µM in experiment [2], 3.39 nM in experiment [3] (setting [8]) and 3.39 nM in experiment [3].
Take `C[C@@H]1CCN(C(=O)c2cccc3ncoc23)C[C@H]1c1cc(C(F)F)nc2ncnn12` [Compound 176]: the Emax in experiment [1] (setting [6]) was 88%; in experiment [2], 56%; in experiment [3] (human recombinant PDE2A) it was 100%; in experiment [3], 100%. In addition, the IC50 in experiment [1] (setting [7]) was 891 nM; in experiment [2], 8.71 µM; in experiment [3] (setting [8]), 9.12 nM; in experiment [3] it was 9.12 nM.
For the compound `Cc1ccc(C(=O)N2[C@H]3CC[C@H](c4cc(C(F)F)nc5ncnn45)[C@@H]2CC3)s1` [Compound 349], the maximum response (Emax) in experiment [1] (setting [4]) stood at 86%; in experiment [2], 64%; in experiment [3], 102%. In addition, the IC50 in experiment [1] (setting [5]) is 1780 nM; in experiment [2], 4.79 µM; in experiment [3], 22.4 nM.
On to `Cc1oncc1C(=O)N1CC[C@@H](C)[C@H](c2cc(C(F)F)nc3ncnn23)C1` [Compound 260], for which the maximum response (Emax) was 74% in experiment [1] (setting [6]), 74% in experiment [1] (setting [4]), 23% in experiment [2] and 97% in experiment [3]. In addition, the IC50 is 2950 nM in experiment [1] (setting [7]), 2950 nM in experiment [1] (setting [5]), above 10 µM in experiment [2] and 138 nM in experiment [3].
For `Cc1ccc(F)c(C(=O)N2CC[C@@H](C)[C@@H](c3cc(C(F)F)nc4ncnn34)C2)n1` [Compound 222], the Emax in experiment [1] (setting [6]) turned out to be 59%; in experiment [1] (setting [4]), 59%; in experiment [2] it was 13%; in experiment [3] (human recombinant PDE2A) it was 98%; in experiment [3], 98%. In addition, the IC50 in experiment [1] (setting [7]) is 6760 nM; in experiment [1] (setting [5]), 6760 nM; in experiment [2], above 10 µM; in experiment [3] (setting [8]), 282 nM; in experiment [3], 282 nM.
Consider `Cc1cc(C(=O)N2CC[C@H](C)[C@@H](c3cc(C#N)nc4ncnn34)C2)cc(C)n1` [Compound 26b], for which, in experiment [1] (human clone (h), default), the “hPDE10A2 Emax” value was 95 and the “hPDE10A2 pIC50” value came out at 6.63. Besides, in experiment [2], the “hPDE3B Emax” value worked out at 41. Further, in experiment [3], the “hPDE2A Emax” value is on record as 98 and the “hPDE2A pIC50” value is 8.17. The “hPDE2A Emax” value in experiment [3] (human recombinant PDE2A) turned out to be 98. Also, in experiment [3] (setting [8]), the “hPDE2A pIC50” value amounted to 8.17.
Regarding `Cc1cccnc1C(=O)N1CC[C@@H](C)[C@H](c2cc(C(F)F)nc3ncnn23)C1` [Compound 229], the Emax in experiment [1] (setting [6]) amounted to 33%; in experiment [1] (setting [4]) it was 33%; in experiment [2], 18%; in experiment [3] (human recombinant PDE2A), 95%; in experiment [3], 95%. Also, the IC50 is above 10000 nM in experiment [1] (setting [7]); above 10000 nM in experiment [1] (setting [5]); above 10 µM in experiment [2]; 562 nM in experiment [3] (setting [8]); 562 nM in experiment [3].
Regarding `Cc1cc(C(=O)N2CC[C@@H](C)[C@H](c3cc(C#N)nc4ncnn34)C2)cc(C)n1` [Compound 26a], in experiment [1] (human clone (h), default), the “hPDE10A2 Emax” value is on record as 7 and the “hPDE10A2 pIC50” value is listed as below 5. Moreover, the “hPDE3B Emax” value in experiment [2] was 0. For the same compound, in experiment [3], the “hPDE2A Emax” value is reported as 21 and the “hPDE2A pIC50” value is below 5. In experiment [3] (human recombinant PDE2A), the “hPDE2A Emax” value came to 21. Besides, the “hPDE2A pIC50” value in experiment [3] (setting [8]) was below 5.
`C[C@@H]1CCN(C(=O)c2cccc3c2OC(F)(F)O3)C[C@H]1c1cc(C(F)F)nc2ncnn12` [Compound 63]: the maximal response (Emax) in experiment [1] (setting [6]) amounted to 89%; in experiment [2], 60%; in experiment [3] (human recombinant PDE2A) it was 100%; in experiment [3] it was 100%. Also, the IC50 in experiment [1] (setting [7]) was 871 nM; in experiment [2], 6.92 µM; in experiment [3] (setting [8]) it was 7.24 nM; in experiment [3] it was 7.24 nM.
Take `Cc1cc(C(=O)N2[C@H]3CC[C@@H]2[C@H](c2cc(C(F)F)nc4ncnn24)CC3)cc(C(F)(F)F)n1` [Compound 285]: the maximum response (Emax) in experiment [1] (setting [4]) came out at 37%; in experiment [2], 21%; in experiment [3], 65%. In addition, the IC50 in experiment [1] (setting [5]) is above 10000 nM; in experiment [2], above 10 µM; in experiment [3] it was 6920 nM.
In the case of `C[C@]1(c2cc(C(F)F)nc3ncnn23)CCCN(C(=O)c2ccc3c(ccn3CCF)c2)C1` (single isomer, unassigned) [Compound 200], the Emax came out at 13% in experiment [1] (setting [6]), 35% in experiment [2], 91% in experiment [3] (human recombinant PDE2A) and 91% in experiment [3]. Moreover, the IC50 in experiment [1] (setting [7]) was above 10000 nM; in experiment [2], above 10 µM; in experiment [3] (setting [8]) it was 97.7 nM; in experiment [3], 97.7 nM.
Consider `CC(C)Oc1cc(C(=O)N2CC[C@@H](C)[C@H](c3cc(C(F)F)nc4ncnn34)C2)cc(C(C)C)c1` [Compound 144], for which the Emax was found to be 96% in experiment [1] (setting [6]), 86% in experiment [2], 100% in experiment [3] (human recombinant PDE2A) and 100% in experiment [3]. Moreover, the IC50 is 468 nM in experiment [1] (setting [7]), 2.4 µM in experiment [2], 34.7 nM in experiment [3] (setting [8]) and 34.7 nM in experiment [3].
Regarding `O=C(c1ccc2nccnc2c1)N1[C@H]2CC[C@H](c3cc(C(F)F)nc4ncnn34)[C@@H]1CC2` [Compound 381], the Emax is 88% in experiment [1] (setting [4]), 48% in experiment [2] and 99% in experiment [3]. Further, the IC50 was 1320 nM in experiment [1] (setting [5]) and 7.59 nM in experiment [3].
Consider `C[C@@H]1CCN(C(=O)c2cnc(CF)cn2)C[C@H]1c1cc(C(F)F)nc2ncnn12` [Compound 255], for which the Emax in experiment [1] (setting [6]) was found to be 58%; in experiment [1] (setting [4]), 58%; in experiment [2], 28%; in experiment [3] it was 95%. The IC50 in experiment [1] (setting [7]) was 7760 nM; in experiment [1] (setting [5]), 7760 nM; in experiment [2], above 10 µM; in experiment [3], 269 nM.
